The values below come from patent publication EP4140481A1, “PROTEIN-OLIGOMER BINDING AGENTS AND THERAPEUTIC USES THEREOF” (Galyan Bio, Inc., priority 2021, dated 2023).

Where two headings read alike, the source gives them in different places.

In assay [1] the test system is STHdh 111/111 cells. In words: Gene expression (Nanostring nCounter Mouse Neuropathology Panel). The format is cell-based. How it is done:
(§1) Gene expression of certain transcripts of interest were measured using Nanostring Technology. […] Some STHdh 7/7 and STHdh 111/111 cell samples were not heat shocked and some wells were treated with Compound 22 at the indicated concentration on for 48 hours (Table 17). Some STHdh 7/7 and STHdh 111/111 cell samples were heat shocked for 3 hours some wells were treated with Compound 22 at the indicated concentration on for 48 hours (Table 18). Cells are washed with PBS, trypsinised, and gathered in a 15 ml falcon tube. After a short spin down for 3 minutes at 300 g, the cell pellet was washed with PBS once, before it was frozen down in liquid nitrogen. RNA was extracted with a standard protocol. The nCounter® Mouse Neuropathology Panel (Nanostring, Seattle) was used for gene expression analysis according to the manufacturer's protocols. Table 17. Cell samples that were not subject to heat shock treatment

The subject of assay [2] is STHdh 7/7 cells. The assay is described as above. The assay is classed as cell-based. To be noted: 10 µM or 20 µM, 48 h, in comparison to untreated cells. How it is done: as §1
Assay [3] has as its target T1, phospho-Tau (Ser396) (Mus musculus, UniProt P10637).
T1 construct: host or cells: ST HDH Q7/7 mouse striatal cell line
In words: Phospho-Tau (Ser396) immunocytochemistry in STHdh 7/7 cells. As to conditions: for Phospho-Tau (Ser396) reduction: heat shocked 3 hours, versus untreated STHdh 7/7. The assay is classed as cell-based. How it is done:
Effect of Compound 4 on Phospho-Tau (Ser396) levels - ST HDH Q7/7 (CH00097, Coriell Institute) striatal derived cell line from a knock in transgenic mouse containing HTT loci with a humanized Exon 1 containing 7 polyglutamine repeats. Immunocytochemistry was conducted as described in Example 33 with the exception that instead of 3B5H10 antibody for staining mHTT, phospho-Tau (Ser396) polyclonal antibody (ThermoFisher, Catalog 44-752G) was used to stain phospho-Tau (Ser396).

Assay [4] has as its target T2, phospho-Tau (Ser404) (Mus musculus, UniProt P10637).
T2 construct: host or cells: ST HDH Q7/7 mouse striatal cell line
In words: Phospho-Tau (Ser404) immunocytochemistry in STHdh 7/7 cells. The assay is classed as cell-based. The source says: Effect of Compound 4 on Phospho-Tau (Ser396) levels - ST HDH Q7/7 (CH00097, Coriell Institute) striatal derived cell line from a knock in transgenic mouse containing HTT loci with a humanized Exon 1 containing 7 polyglutamine repeats. Diffuse mHTT quantified with immunocytochemistry as described in Example 33 with the exception that instead of 3B5H10 antibody for staining mHTT, phospho-Tau (Ser404) polyclonal antibody (ThermoFisher, Catalog 44-758G) was used to stain phospho-Tau (Ser396) and no heat shock was used.

The subject of assay [5] is STHdh 111/111. In words: Morphology of striatal cells expressing mutated huntingtin. The format is cell-based, mouse. To be noted: treated versus not treated STHdh 111/111.
Assay [6] concerns the target T3, A30P mutant α-Synuclein (Homo sapiens, UniProt P37840, A30P).
T3 construct: purchased rPeptide, Watkinsville, Georgia S-1005-2
In words: Dynamic Light Scattering (DLS), induced aggregation. The format is biochemical. How it is done:
Proteins were ultracentrifuged with 50,000 rpm (rounds per minute) for one hour at 2 °C. The supernatant was used for DLS measurements. DLS measurements were conducted with Malvern Zetasizer Nano (Malvern Panalytical Ltd, United Kingdom).
A30P mutant α-Synuclein (catalog S-1005-2, rPeptide, Watkinsville, Georgia) was solved in 20 mM phosphate, pH 7.4 buffer.

For assay [7], the system named is C. elegans. In words: C. elegans healthspan, Worm Activity (aggregate movement). The assay is classed as in vivo. The source says: Background: To measure healthspan, active worms were identified using the ALM scanner images from the lifespan assay. The worms' spatial location on the plate was quantified throughout their lifespan to assess healthspan. Worm Activity serves as a proxy for animal health. Changes in spatial distribution of the worms between time points is used to derive aggregate movement for the population over time.
Worm Activity is described by two complementary measurements of aggregate movement: 1) Centroid Distance calculates a geometric center for each individual worm, and then measures the minimum collective distance that a group of worms moved between time points. It achieves measurement of the changes in spatial distribution betweentime-points. 2). Spatial Distribution uses changes in worm contours between time points to measure the changes in the spatial distribution of the worms' bodies. The normalized distribution of these distances in the population provides a measure of how much the group of worms altered their positions and posture on the plate between two time-points. For both of these activity metrics, a plot with higher numbers indicates good health, and all measures are normalized to fall between 0 and 1. All measurements are based on worms that are still alive and moving at the time of quantification. […]

Assay [8] deals with T4, mHTT (Homo sapiens, UniProt P42858).
T4 construct: host or cells: ST HDH Q111/111 mouse striatal cell line (knock-in locus)
T4 sequence (P42858 with tags, fused parts or gaps with the stated changes): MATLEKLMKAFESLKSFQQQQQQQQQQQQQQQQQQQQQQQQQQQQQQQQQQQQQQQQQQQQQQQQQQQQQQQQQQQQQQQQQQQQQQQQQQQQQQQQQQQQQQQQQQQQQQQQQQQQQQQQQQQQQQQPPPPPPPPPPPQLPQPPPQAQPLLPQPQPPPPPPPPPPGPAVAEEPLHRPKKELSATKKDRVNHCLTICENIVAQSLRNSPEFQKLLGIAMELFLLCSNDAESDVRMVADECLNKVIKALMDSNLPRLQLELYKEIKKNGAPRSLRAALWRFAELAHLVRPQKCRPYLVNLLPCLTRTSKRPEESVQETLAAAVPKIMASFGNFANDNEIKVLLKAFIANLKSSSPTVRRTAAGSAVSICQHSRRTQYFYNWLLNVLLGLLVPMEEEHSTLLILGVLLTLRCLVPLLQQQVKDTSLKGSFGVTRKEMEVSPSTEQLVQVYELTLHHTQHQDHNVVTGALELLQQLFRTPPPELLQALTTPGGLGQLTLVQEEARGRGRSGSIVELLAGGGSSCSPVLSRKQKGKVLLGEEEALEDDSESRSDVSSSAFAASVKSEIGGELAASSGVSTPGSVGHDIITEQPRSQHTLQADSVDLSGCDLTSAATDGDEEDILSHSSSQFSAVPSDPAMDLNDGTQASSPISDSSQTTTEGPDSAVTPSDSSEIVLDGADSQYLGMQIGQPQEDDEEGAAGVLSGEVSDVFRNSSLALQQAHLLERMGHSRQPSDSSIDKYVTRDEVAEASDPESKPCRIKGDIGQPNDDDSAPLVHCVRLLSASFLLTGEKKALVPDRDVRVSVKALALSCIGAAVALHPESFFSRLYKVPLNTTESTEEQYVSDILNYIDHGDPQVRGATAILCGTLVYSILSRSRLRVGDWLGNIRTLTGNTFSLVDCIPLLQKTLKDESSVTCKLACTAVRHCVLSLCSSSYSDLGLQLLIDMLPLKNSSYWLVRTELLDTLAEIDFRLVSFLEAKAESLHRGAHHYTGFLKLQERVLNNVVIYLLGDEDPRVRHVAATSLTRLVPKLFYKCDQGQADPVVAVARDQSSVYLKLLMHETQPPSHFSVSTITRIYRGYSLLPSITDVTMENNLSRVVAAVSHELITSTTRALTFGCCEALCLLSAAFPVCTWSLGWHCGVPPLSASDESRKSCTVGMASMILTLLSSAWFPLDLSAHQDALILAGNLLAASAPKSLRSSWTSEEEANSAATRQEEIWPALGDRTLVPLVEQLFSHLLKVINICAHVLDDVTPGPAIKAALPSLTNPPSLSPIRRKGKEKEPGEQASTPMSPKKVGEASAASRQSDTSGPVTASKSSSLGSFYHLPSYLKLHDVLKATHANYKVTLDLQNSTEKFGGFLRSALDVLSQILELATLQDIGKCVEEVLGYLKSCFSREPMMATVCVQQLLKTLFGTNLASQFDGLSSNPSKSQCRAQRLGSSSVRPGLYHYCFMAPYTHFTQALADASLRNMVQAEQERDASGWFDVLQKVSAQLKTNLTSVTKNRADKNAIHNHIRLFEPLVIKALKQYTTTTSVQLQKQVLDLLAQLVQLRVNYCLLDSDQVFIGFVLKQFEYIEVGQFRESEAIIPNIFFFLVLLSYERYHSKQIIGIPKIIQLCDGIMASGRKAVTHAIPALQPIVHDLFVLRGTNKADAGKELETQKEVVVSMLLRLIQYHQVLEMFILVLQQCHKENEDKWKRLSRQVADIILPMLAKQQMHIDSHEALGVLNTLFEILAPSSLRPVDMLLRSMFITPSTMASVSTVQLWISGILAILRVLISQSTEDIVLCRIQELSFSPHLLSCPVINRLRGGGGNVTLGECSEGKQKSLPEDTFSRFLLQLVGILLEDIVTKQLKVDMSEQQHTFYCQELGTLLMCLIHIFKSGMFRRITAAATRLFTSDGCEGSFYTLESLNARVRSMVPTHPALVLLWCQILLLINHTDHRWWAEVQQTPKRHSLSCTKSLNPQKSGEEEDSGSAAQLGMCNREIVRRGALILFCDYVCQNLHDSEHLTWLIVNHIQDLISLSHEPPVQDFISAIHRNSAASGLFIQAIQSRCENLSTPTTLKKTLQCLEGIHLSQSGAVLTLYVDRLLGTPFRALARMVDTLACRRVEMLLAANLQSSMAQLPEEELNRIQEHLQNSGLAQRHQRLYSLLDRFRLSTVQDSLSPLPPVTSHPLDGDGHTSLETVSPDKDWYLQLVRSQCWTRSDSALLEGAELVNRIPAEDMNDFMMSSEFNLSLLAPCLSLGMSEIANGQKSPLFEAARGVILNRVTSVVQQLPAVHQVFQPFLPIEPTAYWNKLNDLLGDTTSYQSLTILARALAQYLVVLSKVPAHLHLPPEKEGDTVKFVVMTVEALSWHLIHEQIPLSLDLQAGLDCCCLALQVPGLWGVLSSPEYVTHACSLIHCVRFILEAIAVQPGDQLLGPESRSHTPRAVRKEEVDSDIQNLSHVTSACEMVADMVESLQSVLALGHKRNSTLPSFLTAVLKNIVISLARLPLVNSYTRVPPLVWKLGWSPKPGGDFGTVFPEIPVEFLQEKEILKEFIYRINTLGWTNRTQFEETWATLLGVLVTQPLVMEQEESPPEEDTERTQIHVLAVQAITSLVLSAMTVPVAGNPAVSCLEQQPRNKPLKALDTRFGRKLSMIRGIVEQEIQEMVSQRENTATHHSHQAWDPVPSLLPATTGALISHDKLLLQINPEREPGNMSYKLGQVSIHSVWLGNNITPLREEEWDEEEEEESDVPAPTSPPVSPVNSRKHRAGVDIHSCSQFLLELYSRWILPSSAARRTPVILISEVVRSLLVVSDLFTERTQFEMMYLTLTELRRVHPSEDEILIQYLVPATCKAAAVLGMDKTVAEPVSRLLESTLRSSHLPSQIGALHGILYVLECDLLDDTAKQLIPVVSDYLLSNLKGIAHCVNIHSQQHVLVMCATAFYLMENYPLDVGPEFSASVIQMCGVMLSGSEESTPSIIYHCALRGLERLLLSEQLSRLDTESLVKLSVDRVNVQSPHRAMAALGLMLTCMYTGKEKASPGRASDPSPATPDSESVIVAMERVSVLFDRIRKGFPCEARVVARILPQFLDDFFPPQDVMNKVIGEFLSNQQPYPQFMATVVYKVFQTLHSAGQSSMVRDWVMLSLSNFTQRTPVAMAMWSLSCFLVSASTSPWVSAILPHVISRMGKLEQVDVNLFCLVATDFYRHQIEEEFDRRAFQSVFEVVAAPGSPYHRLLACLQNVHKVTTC
To be noted: reported effects in cultured cells, quoted for C. elegans dose selection; cited from earlier work.

Assay [9] deals with T4, mHTT. In words: mHTT levels in striatal cells (immunocytochemistry). The assay is classed as cell-based, mouse. As to conditions: STHdh 111/111; MW1 primary antibody; non-linear regression; read-out: EC 50 value for mHTT reduction.
[10] abbreviates: treated STHdh 111/111 in comparison to untreated STHdh 111/111.
Where [11] appears, read: by number, 100 µM equimolar Compound 4.
[12] abbreviates: by volume, 100 µM equimolar Compound 4.

T1 sequence (P10637 whole entry): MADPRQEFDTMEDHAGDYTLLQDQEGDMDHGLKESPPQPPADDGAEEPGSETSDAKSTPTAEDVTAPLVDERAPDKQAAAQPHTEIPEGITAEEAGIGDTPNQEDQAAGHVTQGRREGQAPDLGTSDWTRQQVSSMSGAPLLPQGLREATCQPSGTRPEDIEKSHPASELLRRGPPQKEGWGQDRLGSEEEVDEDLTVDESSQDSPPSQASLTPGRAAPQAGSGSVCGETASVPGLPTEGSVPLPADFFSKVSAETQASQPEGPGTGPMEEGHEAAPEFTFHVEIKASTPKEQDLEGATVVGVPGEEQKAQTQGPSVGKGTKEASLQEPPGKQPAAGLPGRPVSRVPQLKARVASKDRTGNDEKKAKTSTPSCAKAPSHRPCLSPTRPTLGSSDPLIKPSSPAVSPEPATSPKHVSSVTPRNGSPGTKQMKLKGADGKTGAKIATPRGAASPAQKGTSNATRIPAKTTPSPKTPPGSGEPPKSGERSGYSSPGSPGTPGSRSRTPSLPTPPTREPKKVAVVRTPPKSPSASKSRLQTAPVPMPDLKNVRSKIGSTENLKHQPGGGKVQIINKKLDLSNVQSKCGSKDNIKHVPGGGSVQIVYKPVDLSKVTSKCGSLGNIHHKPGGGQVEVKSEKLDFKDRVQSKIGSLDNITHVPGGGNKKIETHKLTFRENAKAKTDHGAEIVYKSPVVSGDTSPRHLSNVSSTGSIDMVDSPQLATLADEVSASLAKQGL
T2 sequence (P10637 whole entry): as above

As for `Cc1[nH]c2ccc(C(=O)NCCN(C(C)C)C(C)C)cc2c1C` [Compound 22], the “Genes associated with the autophagy pathway” value was “upregulated” in [1] (10 µM or 20 µM, 48 h, in comparison to untreated cells) and “upregulated” in assay [2]. Also, the NGFR expression increase in assay [1] (paragraph on the KCNA1 gene (Figure 25 (E)), treated versus untreated STHdh 111/111) came out at 68%; in assay [1] (treated STHdh 111/111 in comparison to untreated STHdh 111/111 (Figure 25 (D))) it was 60%. Besides, the Slc32a1 expression upregulation in assay [1] (treated STHdh 111/111 (Q111-10) in comparison to untreated STHdh 111/111) came out at 12 fold. For the same compound, in assay [1] (setting [10]), the Olig2 expression entry is “doubled”. In addition, the Rasgrp1 expression downregulation in [1] (setting [10]) is reported as 29%.

Take `CCc1c(C)[nH]c2ccc(C(=O)NCCN(CC)CC)cc12` [Compound 4, N-(2-(diethylamino)ethyl)-3-ethyl-2-methyl-1H-indole-5-carboxamide]: in assay [3] (5 µM, 10 mM ammonium chloride), the “Phospho-Tau (Ser396) reduction with autophagy inhibitor” value is given as “could not reduce”. In assay [3] (5 µM), the “Phospho-Tau (Ser396) reduction” value was found to be 20%. In assay [3] (10 µM, 10 mM ammonium chloride, read-out: Phospho-Tau (Ser396) reduction with autophagy inhibitor), the inhibition at 10 µM came out at 15.2%. In assay [3] (10 µM), the “Phospho-Tau (Ser396) reduction” value worked out at 26.3%. Besides, the “Phospho-Tau (Ser404) reduction” value in assay [4] (10 µM, no heat shock, versus untreated STHdh 7/7) amounted to 40%. For the same compound, the “Phospho-Tau (Ser404) reduction with autophagy inhibitor” value in [4] (10 mM ammonium chloride) is given as “could not reduce”. Moreover, the cell morphology result in assay [5] is “improved cell viability, dendrite outgrowth and increased cell size”. In assay [6] (setting [11]), the “% Number, Peak 1” value is recorded as 100,0% and the “Size, Peak 1” value is on record as 86,77 nm. Also, in assay [6] (setting [12]), the “% Volume, Peak 1” value is given as 36.1%; the “% Volume, Peak 2” value amounted to 36.3%; the “% Volume, Peak 3” value came out at 27.6%; the “Size, Peak 1” value is 107.0 nm. In assay [6] (setting [12]), the “Size, Peak 2” value is recorded as 313.6 nm and the “Size, Peak 3” value is given as 3063 nm. The “aggregation of oligomers of A30P” value in assay [6] (equimolar Compound 4) is “induces the formation of aggregates of oligomers of A30P”. Besides, the “aggregate movement (Centroid Distance, Spatial Distribution)” value in assay [7] (high dose (2 µM), after a slower start) is recorded as “even more elevated movement”. For the same compound, in [7] (low dose (200 nM), over the lifespan), the “aggregate movement (Centroid Distance, Spatial Distribution)” value was “consistently higher aggregate movement than control”. In addition, the EC50 in assay [8] is 160 nM. Further, the EC50 in assay [9] amounted to 130 nM.
